According to patent publication EP0041644B1 (priority 1980, dated 1981):

Tests used:
L1210 Leukemia [1] = experiment: L1210 Leukemia - Test 3 (vehicle comparison); format: in vivo, mice; settings: Day 1 only, vehicle Saline
L1210 Leukemia [2] = experiment: L1210 Leukemia - Test 1 (survival of tumor-bearing mice); format: in vivo
Text: This evaluation of the ammonium salt finds the drug to be active against L1210 (ip) leukemia when administered ip one day post-implant of 10^6 L1210 cells (maximum T/C was 164%). […] The vehicle for the ammonium salt was water.

L-1210 Leukemia = L-1210 Leukemia (Table IX); format: in vivo, mice; settings: qd 1→9
Experimental: The sodium and ammonium salts of the present invention were tested against transplantable mouse tumors as indicated below.

[3] = 0.5 mg/kg/day ip, qd 1→9, in H2O
[4] = 0.5 mg/kg/day ip, qd 1→9, in saline
[5] = 1 mg/kg/day ip, qd 1→9, in saline
[6] = 2 mg/kg/day ip, qd 1→9, in saline
[7] = 4 mg/kg/day ip, d. 1 only, in H2O
[8] = 4 mg/kg/day ip, d. 1 only, in saline
[9] = 6 mg/kg/day ip, d. 1 only, in H2O
[10] = 6 mg/kg/day ip, d. 1 only, in saline
[11] = 8 mg/kg/day ip, d. 1 only, in H2O
[12] = 8 mg/kg/day ip, d. 1 only, in saline
[13] = 10 mg/kg/day ip, d. 1 only, in H2O
[14] = 10 mg/kg/day ip, d. 1 only, in saline

## N.N.[Cl][Pt][Cl] [Cis-DDP, cis-diammine dichloroplatinum (II)]
L1210 Leukemia [1]; 4 mg/kg ip
  Average Weight Change: −1.7
  Effect MST % T/C: 143 % T/C
  MST Days: 10.0 days
  Survivors Day 5: 6/6
L1210 Leukemia [1]; 6 mg/kg ip
  Average Weight Change: −2.3
  Effect MST % T/C: 143 % T/C
  MST Days: 10.0 days
  Survivors Day 5: 6/6
L1210 Leukemia [1]; 8 mg/kg ip
  Average Weight Change: −1.8
  Effect MST % T/C: 150 % T/C
  MST Days: 10.5 days
  Survivors Day 5: 6/6
L1210 Leukemia [1]; 10 mg/kg ip
  Average Weight Change: −4.5
  Effect MST % T/C: 150 % T/C
  MST Days: 10.5 days
  Survivors Day 5: 6/6
L1210 Leukemia [2]; [3]
  Average Weight Change: −3.8
  Effect MST % T/C: 143 % T/C
  MST Days: 10.0 days
  Survivors Day 5(30): 6/6
L1210 Leukemia [2]; [4]
  Average Weight Change: +1.5
  Effect MST % T/C: 100 % T/C
  MST Days: 7.0 days
L1210 Leukemia [2]; 1 mg/kg/day ip, qd 1→9, in H2O
  Average Weight Change: −3.7
  Effect MST % T/C: 114 % T/C
  MST Days: 8.0 days
  Survivors Day 5(30): 6/6
L1210 Leukemia [2]; [5]
  Average Weight Change: −0.9
  Effect MST % T/C: 150 % T/C
  MST Days: 10.5 days
  Survivors Day 5(30): 6/6
L1210 Leukemia [2]; 2 mg/kg/day ip, qd 1→9, in H2O
  Average Weight Change: −4.0
  Effect MST % T/C: 86 % T/C
  MST Days: 6.0 days
  Survivors Day 5(30): 4/6
L1210 Leukemia [2]; [6]
  Average Weight Change: −3.3
  Effect MST % T/C: 250 % T/C
  MST Days: 17.5 days
L1210 Leukemia [2]; [7]
  Average Weight Change: −5.9
  Effect MST % T/C: 100 % T/C
  MST Days: 7.0 days
  Survivors Day 5(30): 6/6
L1210 Leukemia [2]; [8]
  Average Weight Change: −0.7
  Effect MST % T/C: 164 % T/C
  MST Days: 11.5 days
  Survivors Day 5(30): 6/6
L1210 Leukemia [2]; [9]
  Average Weight Change: TOX
  Effect MST % T/C: TOX
  MST Days: TOX
  Survivors Day 5(30): 1/6
L1210 Leukemia [2]; [10]
  Effect MST % T/C: 186 % T/C
  MST Days: 13.0 days
  Survivors Day 5(30): 6/6
L1210 Leukemia [2]; [11]
  Average Weight Change: TOX
  Effect MST % T/C: TOX
  MST Days: TOX
  Survivors Day 5(30): 4/6
L1210 Leukemia [2]; [12]
  Effect MST % T/C: 193 % T/C
  MST Days: 13.5 days
  Survivors Day 5(30): 6/6
L1210 Leukemia [2]; [13]
  Average Weight Change: TOX
  Effect MST % T/C: TOX
  MST Days: TOX
  Survivors Day 5(30): 1/6
L1210 Leukemia [2]; [14]
  Average Weight Change: −3.6
  MST Days: 14.5 days
  Survivors Day 5(30): 6/6
L-1210 Leukemia; 0.4 mg/kg/inj ip
  Average Weight Change,g: -0.6 g
  Effect MST % T/C: 108 % T/C
  MST Days: 7.0 days
  Survivors Day 5(45): 6/6
L-1210 Leukemia; 0.8 mg/kg/inj ip
  Average Weight Change,g: -2.1 g
  Effect MST % T/C: 138 % T/C
  MST Days: 9.0 days
  Survivors Day 5(45): 6/6
